According to patent US9796730B2, “Halogenated benzoxazines and their use” (priority 2012, dated 2017):

Key:
Aβ plaques [1] = test: Detection of Aβ plaques by means of MRT and optical fluorescence measurements in the mice model; format: in vivo, transgenic APP23 mice and non-transgenic control mice; settings: age 28 months, 2 mg/kg body weight
Text: Detection of Aβ Plaques by Means of MRT in the Mice Model
For the MRT measurements a threedimensional gradient echosequence (gre3D) which both comprises T1 as well as T2* parts, and a quantitative T2 value determination sequence (T2map) were used.
The observations made in vivo could also be confirmed ex vivo after a preparation of the brains.

Aβ plaques [2] = test: Detection of Aβ plaques by means of optical imaging (OI) in the mouse model; format: in vivo, transgenic APPPS1 mice and non-transgenic control mice
Method: Detection of Aβ Plaques by Means of Optical Imaging (OI) in the Mouse Model
The compound was formulated in physiological saline solution (0.9% NaCl) in a concentration of 0.05 mg/ml and intravenously injected into the mice. In the following the mice were examined by means of OI (Aequoria Hamamatsu Optical Imaging System), the signal was detected at 650 nm.
It is clear for the skilled person that this labeling can—depending on the kind of labeling—be realized by any method, such as OI, PET (e.g. with ^76Br, ^75Br or ^18F labeled compounds) or MRT (e.g. with ^19F labeled compounds).
The signal strength was quantified as a relative fluorescence signal, whereby 30 min after the injection was chosen as the reference point in time. The signal strength was calculated by percentage after the subtraction of the auto fluorescence (resulting in relative intensity values, Irel) and then the percentage difference between the transgenic and control mice—in the following referred to as specific binding (Bsp)—was calculated and plotted against the age of the transgenic mice (see FIG. 3). It turned out that there is a significant correlation between the age and the development of the Alzheimer's disease and the signal strength, where it was especially noted that the compound according to the invention has no saturation or ceiling effects in a way that the signal strength is not increasing at a specific concentration of Aβ plaques. To the contrary, at the age of 21 months for the transgenic mice a particularly strong signal has been measured.

[3] = Storage stability of the isolated title compound; format: physicochemical; settings: within 12 hours at −25° C.
Method: The title compound is instable and decomposes within 12 hours to 50% at −25° C. For this reason the title compound is further converted directly after the isolation.

For CCN1CCOc2cc3c(cc21)Oc1cc2c(cc1=N3)OCC[N+]=2CC[19F] [Example 1, 8-Ethyl-4-(2-fluoroethyl)-3,8,9,10-tetrahydro-2H-bis([1,4]oxazino)[2,3-b:3′,2′-i]phenoxazin-4-ium chloride], the “enrichment in control mice (MRT and fluorescence)” value (Aβ plaques [1]; non-transgenic control mice) was “neither for the MRT measurements nor the fluorescence measurements a specific enrichment” and the “enrichment in transgenic mice (MRT and fluorescence)” value (Aβ plaques [1]; transgenic APP23 mice, measurement period 90 minutes) was “a specific enrichment in the transgenic mice could be detected”.

For CCN1CCOc2cc3c(cc21)Oc1cc2c(cc1=N3)OCC[N+]=2CC[18F] [Example 3, [F-18]-8-Ethyl-4-(2-Fluoroethyl)-3,8,9,10-tetrahydro-2H-bis([1,4]-oxazino)[2,3-b:3′,2′-i]phenoxazin-4-ium chloride], the “binding to Aβ plaques (summary of OI examinations)” value (Aβ plaques [2]; in vivo, OI) was “selectively binds to Aβ plaques”, the “accumulation in control mice (OI signal)” value (Aβ plaques [2]; non-transgenic control mice, 0.1 mg/kg body weight i.v., signal at 650 nm, FIG. 1) was “no accumulation could be detected” and the “accumulation in transgenic mice (OI signal)” value (Aβ plaques [2]; transgenic APPPS1 mice, 0.1 mg/kg body weight i.v., signal at 650 nm, FIG. 1 (age 12 months, 120 min after injection)) was “specifically accumulates in transgenic mice”. For the same molecule, the “enrichment as a function of the age of the transgenic mice” value (Aβ plaques [2]; transgenic APPPS1 mice, 0.1 mg/kg i.v., OI) was “increases with the age of the transgenic mice”, the “enrichment in transgenic mice of an age of 2 months” value (Aβ plaques [2]; transgenic APPPS1 mice, age 2 months, 0.1 mg/kg i.v., OI, FIG. 2) was “no enrichment can be detected” and the “enrichment in transgenic mice at the age of 12 months” value (Aβ plaques [2]; transgenic APPPS1 mice, age 12 months, 0.1 mg/kg i.v., OI, FIG. 2) was “a significant enrichment can be seen”.

For Oc1ccc2c(c1)N(CCBr)CCO2 [Example 13A, 4-(2-Bromoethyl)-3,4-dihydro-2H-benzo[b][1,4]oxazin-6-ol], the decomposition on storage [3] was 50%.
